Experimental data taken from patent US12604903B2 (priority 2019, dated 2026).
Read-outs that look alike come from different tables or passages of the source. Residues, ends and D or L forms follow the SMILES beside them.

B1: TKPCQSDKDCKKFACRKPKVPKCINGFCKCVRAPKKVEPTKPCQSDKDCKKFACRKPKVPKCINGFCKCVR (protein)
chain: TKPCQSDKDCKKFACRKPKVPKCINGFCKCVRAPKKVEPTKPCQSDKDCKKFACRKPKVPKCINGFCKCVR
notes: two NCR13 monomers linked in tandem by the APKKVEP spacer peptide from MtDef5 defensin, 71 amino acids

Legend:
Fusarium oxysporum = format: cell-based

Molecule | IC50 (Phytophthora capsici) [µM] | Phytophthora capsici MIC (Phytophthora capsici) [µM] | Fusarium graminearum MIC (Fusarium graminearum) [µM] | IC50 (Fusarium graminearum) [µM] | Alternaria brassicicola MIC (Alternaria brassicicola) [µM] | IC50 (Alternaria brassicicola) [µM] | Botrytis cinerea MIC (Botrytis cinerea) [µM] | IC50 (Botrytis cinerea) [nM] | Fusarium oxysporum MIC (Fusarium oxysporum) [µM] | IC50 (Fusarium oxysporum) [nM] | other results
CC[C@H](C)[C@H](NC(=O)[C@H](CS)NC(=O)[C@H](CCCCN)NC(=O)[C@@H]1CCCN1C(=O)[C@@H](NC(=O)[C@H](CCCCN)NC(=O)[C@@H]1CCCN1C(=O)[C@H](CCCCN)NC(=O)[C@H](CCCNC(=N)N)NC(=O)[C@H](CS)NC(=O)[C@H](C)NC(=O)[C@H](Cc1ccccc1)NC(=O)[C@H](CCCCN)NC(=O)[C@H](CCCCN)NC(=O)[C@H](CS)NC(=O)[C@H](CC(=O)O)NC(=O)[C@H](CCCCN)NC(=O)[C@H](CC(=O)O)NC(=O)[C@H](CO)NC(=O)[C@H](CCC(N)=O)NC(=O)[C@H](CS)NC(=O)[C@@H]1CCCN1C(=O)[C@H](CCCCN)NC(=O)[C@@H](N)[C@@H](C)O)C(C)C)C(=O)N[C@@H](CC(N)=O)C(=O)NCC(=O)N[C@@H](Cc1ccccc1)C(=O)N[C@@H](CS)C(=O)N[C@@H](CCCCN)C(=O)N[C@@H](CS)C(=O)N[C@H](C(=O)N[C@@H](CCCNC(=N)N)C(=O)O)C(C)C [NCR13-S] (H-TKPCQSDKDCKKFACRKPKVPKCINGFCKCVR-OH) | > 6 | >6 | 6 | 4 | 6 | 4 | 3 | 1500 |  |  | 
CC(C)[C@H](NC(=O)[C@H](CS)NC(=O)[C@H](CCCCN)NC(=O)[C@H](CS)NC(=O)[C@H](Cc1ccccc1)NC(=O)CNC(=O)[C@H](CC(N)=O)NC(=O)[C@@H](NC(=O)[C@H](CS)NC(=O)[C@H](CC(N)=O)NC(=O)[C@@H]1CCCN1C(=O)[C@@H](NC(=O)[C@H](CCCCN)NC(=O)[C@@H]1CCCN1C(=O)[C@@H](NC(=O)[C@@H]1CCCN1C(=O)[C@H](CS)NC(=O)[C@H](CCCNC(=N)N)NC(=O)[C@H](Cc1ccc(O)cc1)NC(=O)[C@@H](NC(=O)[C@H](CCCCN)NC(=O)[C@H](CS)NC(=O)[C@H](Cc1c[nH]cn1)NC(=O)[C@H](CCCCN)NC(=O)[C@H](CCCNC(=N)N)NC(=O)[C@H](CO)NC(=O)[C@H](CCCCN)NC(=O)[C@H](CS)NC(=O)[C@@H]1CCCN1C(=O)[C@H](CCC(N)=O)NC(=O)[C@H](CCCCN)NC(=O)[C@@H](N)[C@@H](C)O)[C@@H](C)O)[C@@H](C)O)C(C)C)C(C)C)C(=O)N[C@@H](CCCNC(=N)N)C(=O)O [NCR15-S] (H-TKQPCKSRKHCKTYRCPTPKVPNCVNGFCKCVR-OH; N-terminus and C-terminus assumed) | > 6 | >6 | 6 | 4 | 6 | 3 | 6 | 3000 |  |  | 
CSCC[C@H](NC(=O)[C@H](CCCCN)NC(=O)[C@@H](N)CCCCN)C(=O)N1CCC[C@H]1C(=O)N[C@@H](CS)C(=O)N[C@@H](CCCCN)C(=O)N[C@@H](CCCNC(=N)N)C(=O)N[C@@H](CCCNC(=N)N)C(=O)N[C@@H](CCCNC(=N)N)C(=O)N[C@@H](CC(=O)O)C(=O)N[C@@H](CS)C(=O)N[C@@H](CCCCN)C(=O)N[C@H](C(=O)N[C@@H](Cc1ccc(O)cc1)C(=O)N1CCC[C@H]1C(=O)N[C@@H](CS)C(=O)N1CCC[C@H]1C(=O)N[C@@H](Cc1c[nH]cn1)C(=O)N1CCC[C@H]1C(=O)N[C@@H](CCCCN)C(=O)N[C@H](C(=O)N[C@@H](CCCNC(=N)N)C(=O)N[C@@H](CC(=O)O)C(=O)N[C@@H](CS)C(=O)N[C@H](C(=O)N[C@@H](CCCCN)C(=O)NCC(=O)N[C@@H](Cc1ccc(O)cc1)C(=O)N[C@@H](CS)C(=O)N[C@@H](CCCCN)C(=O)N[C@@H](CS)C(=O)N[C@H](C(=O)N[C@H](C(=O)N[C@@H](CCCNC(=N)N)C(=O)O)C(C)C)C(C)C)C(C)C)C(C)C)[C@@H](C)O [NCR7-S] (H-KKMPCKRRRDCKTYPCPHPKVRDCVKGYCKCVVR-OH; N-terminus and C-terminus assumed) | > 6 | >6 | 6 | 4 | 6 | 4 | 6 | 3000 |  |  | 
TKPCQSDKDCKKFACRKPKVPKCINGFCKCVR (listed as Cicer arietinum) [NCR13-P] |  | >6 | 3 |  | 4 |  | 3 |  | 2 to 3 | 1000 | growth inhibition of P. capsici (in words) (Phytophthora capsici): inactive; IC50 (Phytophthora capsici; read-out: Phytophthora capsici IC50): > 6 µM; IC50 (Fusarium graminearum; read-out: Fusarium graminearum IC50): 2 µM; IC50 (Alternaria brassicicola; read-out: Alternaria brassicicola IC50): 2 µM; IC50 (Botrytis cinerea; read-out: Botrytis cinerea IC50): 1000 nM
B1 |  |  |  |  |  |  |  |  | 0.3 | 100 | antifungal activity against F. oxysporum (in words) (Fusarium oxysporum): significantly more active; Fusarium graminearum MIC (Fusarium graminearum; in vitro growth inhibition): 1.5 µM; IC50 (Fusarium graminearum; read-out: Fusarium graminearum IC50, in vitro growth inhibition): 1 µM; antifungal activity against B. cinerea (in words) (Botrytis cinerea): significantly more active; Botrytis cinerea MIC (Botrytis cinerea; in vitro growth inhibition): 1.5 µM; IC50 (Botrytis cinerea; read-out: Botrytis cinerea IC50, in vitro growth inhibition): 750 nM
